Measured values as given in PMC12920416, “Preclinical development of [^18F]TAAR1-2203 as a PET radioligand for imaging TAAR1 expression and receptor occupancy” (European Journal of Nuclear Medicine and Molecular Imaging, 2025).

Experiments:
[1] = Distribution coefficient (LogD), shake-flask method; assay type: physicochemical; details: n-octanol/PBS pH 7.4, n = 3, read-out: LogD7.4
Protocol: The distribution coefficient (LogD) was determined using the shake-flask method. Briefly, 500 µCi (18.5 MBq) of [^18F]TAAR1-2203 was added to a presaturated mixture of PBS (1.3 mL, pH 7.4) and n-octanol (3 mL). The mixture was vortexed for 5 min, after which 500 µL aliquots (n = 3) were transferred into separate tubes and centrifuged at 3500–4000 rpm for 5 min. Following centrifugation, 50 µL of the n-octanol phase and 500 µL of the aqueous phase were carefully sampled and transferred into pre-weighed gamma counter tubes. After weighing, radioactivity in each phase was quantified using a Packard Cobra 5002/5003 gamma counter. The LogD value at pH 7.4 was calculated based on the measured weights and the radioactivity distribution between the organic and aqueous phases, as previously reported.

[2] = Plasma protein binding of tracer, human plasma; assay type: in vitro ADME; details: radiotracer, 10 min incubation, ultrafiltration, read-out: Free fraction in human plasma
Protocol: (§1) Plasma protein binding of [^18F]TAAR1-2203 was determined in mouse, rat, NHP, and human plasma. Plasma samples (150 µL, n = 3) were preincubated at 37 °C for 5 min before addition of [^18F]TAAR1-2203 (10 µCi, 0.37 MBq). After 10 min of incubation, 300 µL of ice-cold PBS were added. Samples (300 µL) were then transferred onto Amicon® centrifugal filter units (10 kDa cut-off) and centrifuged at 2100 g for 15 min at 4 °C. Filtrates were washed with 300 µL PBS and centrifuged again. Radioactivity in the filtrate and protein-bound fractions was measured using a Packard Cobra 5002/5003 gamma counter.

[3] = Microsomal stability, rat liver microsomes; assay type: in vitro ADME; details: after 60 min, 37 °C, printed as rodent microsomes
Protocol: (§2) Microsomal stability of [^18F]TAAR1-2203 was evaluated using mouse, rat, NHP, and human liver microsomes. Potassium phosphate buffer (340 µL, 0.5 M, pH 7.4) was combined with NADPH regenerating solution (40 µL, 10 mM). Radiotracer solution (10 µL, 150 µCi, 5.5 MBq) was added, and the mixture was preincubated at 37 °C for 5 min. Liver microsomes (20 µL) were subsequently added. Incubations were carried out at 37 °C with gentle shaking. At 30 and 60 min, 200 µL aliquots were quenched with ice-cold MeCN (200 µL), centrifuged at 10,000 g for 5 min, and analyzed using an AR-2000 radio-TLC imaging scanner (Eckert & Ziegler).

[4] = biological target: T1, TAAR1 (Mus musculus, UniProt Q923Y8); assay: Ex vivo whole-body biodistribution, baseline and blockade; assay type: in vivo, CD1 mice
T1 construct: peripheral organs that express endogenous TAAR1; tissue Charles River (wild-type); F. Hoffmann-La Roche Ltd. (TAAR1 knock-out and matched controls); host or cells: mouse pancreas, kidney, liver, brain
Protocol: Female CD1 mice (16 weeks old, n = 4) received [^18F]TAAR1-2203 (15 µCi, 0.56 MBq in 100 µL saline) via tail vein injection. For blocking studies, TAAR1 agonist RO5425754 (4 mg/kg) dissolved in saline containing 10% DMSO and 5% Tween® 80 was administered shortly before tracer injection through the same i.v. catheter. Mice were sacrificed at 5, 15, 30, and 60 min post-injection (n = 4 per group), and organs were harvested, weighed, and measured for radioactivity using a Packard Cobra 5002/5003 gamma counter. Data were decay-corrected and expressed as percentage of injected dose per gram of wet tissue (%ID/g).

[5] = biological target: T1, TAAR1; assay: In vitro autoradiography, mouse pancreas and kidney sections; assay type: binding, CD1 mice; details: tracer 5–8 nM; blockade with RO5333943 or RO5425754 at 10 µM
Protocol: In vitro autoradiography experiments with [^18F]TAAR1-2203 were conducted on mouse and rat pancreas, kidney and brain tissue sections, respectively. Tissue Sect. (20 μm) were thawed on ice for 10 min and preincubated in assay buffer (50 mM Tris, pH 7.4) for 10 min. Subsequently, sections were incubated with [^18F]TAAR1-2203 for 40 min at ambient temperature. For blocking studies, structurally distinct TAAR1 agonists, RO5333943 or RO5425754, were added in excess to the assay buffer at a final concentration of 10 µM. After incubation, sections were washed in assay buffer for 2 min on ice and dipped briefly in water (2 × 5 s), followed by drying and exposure to a phosphor imager plate for 60 min. Imager plates were scanned on an Amersham Typhoon analyzer system, and images were analyzed using ImageQuant TL 8.1, as previously reported.

[6] = Microsomal stability, NHP liver microsomes; assay type: in vitro ADME, non-human primate; details: after 60 min, 37 °C
Protocol: as §2

[7] = Serum stability, rat serum; assay type: in vitro ADME; details: 60 min, 37 °C
Protocol: The stability of [^18F]TAAR1-2203 was assessed in mouse, rat, NHP, and human serum. Aliquots (400 µL) of serum were preincubated at 37 °C for 5 min, followed by the addition of [^18F]TAAR1-2203 (20 µL, 300 µCi/11.1 MBq). After 60 min, 200 µL of each sample was collected, quenched with ice-cold MeCN (200 µL), centrifuged at 10,000 g for 5 min, and analyzed by radio-HPLC (XBridge C18 column, 3.5 μm, 4.6 mm × 150 mm; CH3CN/H2O 35:65 with 0.1% TEA; flow rate 1.0 mL/min). Experiments in PBS served as negative controls, and benfluorex hydrochloride was used as a positive control.

[8] = biological target: T1, TAAR1; assay: Dynamic PET imaging, TAAR1 knockout vs wild-type mice; assay type: in vivo
Protocol: Dynamic PET imaging was performed for 60 min in female C57BL/6 mice, as well as in TAAR1 knock-out mice and respective controls, under 1–2% (v/v) isoflurane anaesthesia as previously reported. [^18F]TAAR1-2203 (1.5 MBq in 100 µL saline) was administered via tail vein injection. For blocking studies, TAAR1 agonist RO5425754 (4 mg/kg) was injected 5 min prior to radiotracer administration. Dynamic PET scans were acquired using a G8 PET/CT scanner (Sofie Biosciences, Culver, CA, USA) and analyzed with PMOD software (PMOD Technologies Ltd., Zurich, Switzerland). Radioactivity was decay-corrected and expressed as standardized uptake values (SUVs), normalized to body weight and injected dose.

[9] = Plasma protein binding of tracer, rat plasma; assay type: in vitro ADME; details: radiotracer, 10 min incubation, ultrafiltration, read-out: Free fraction in rat plasma
Protocol: as §1

[10] = baseline, i.v., initial uptake post-injection
[11] = blockade with RO5425754 4 mg/kg, 15 min post-injection, n = 4

T1 sequence (Q923Y8 whole entry): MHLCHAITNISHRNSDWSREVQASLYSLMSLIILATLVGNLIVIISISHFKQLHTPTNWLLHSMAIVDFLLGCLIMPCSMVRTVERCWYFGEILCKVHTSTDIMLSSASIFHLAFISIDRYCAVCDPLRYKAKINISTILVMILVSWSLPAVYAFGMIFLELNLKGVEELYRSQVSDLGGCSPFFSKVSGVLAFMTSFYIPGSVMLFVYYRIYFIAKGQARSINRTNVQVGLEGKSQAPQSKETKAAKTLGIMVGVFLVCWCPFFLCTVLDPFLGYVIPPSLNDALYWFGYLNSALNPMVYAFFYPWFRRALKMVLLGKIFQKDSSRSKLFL

SMILES: Cc1c([18F])cccc1[C@H]1COC(N)=N1 [[^18F]TAAR1-2203]
- logD [1]: 1.64 ± 0.01
- fraction unbound at 10 min [2]: ~0.6
- Intact tracer in rat liver microsomes [3]: > 98%
- Initial uptake in kidney [4, 10]: exceeding 10 % ID/g
- Initial uptake in lung [4, 10]: exceeding 10 % ID/g
- Initial uptake in pancreas [4, 10]: exceeding 10 % ID/g
- Specific binding in the brain ([4]; blockade with RO5425754 4 mg/kg, 15 min post-injection): no specific binding was detected
- Specific binding in the kidney [4, 11]: 52.5 ± 14.3%
- Specific binding in the liver [4, 11]: 30.2 ± 12.2%
- Specific binding in the pancreas [4, 11]: 52.2 ± 15.2%
- Reduction of tracer binding, mouse kidney [5]: greater than 70%
- Reduction of tracer binding, mouse pancreas [5]: more than 50%
- Intact tracer in NHP liver microsomes [6]: > 99%
- Intact parent tracer in rat serum [7]: > 99%
- Kidney AUC0−60 min in TAAR1 KO vs WT mice [8]: significant reduction
- fraction unbound at 10 min, 2.47 MBq/mL [9]: ~0.6
